Counter-ions that a name gives are not always drawn. Like-named read-outs stand apart in the source and are kept apart here.
Tests used:
[1] = tested on: tactile sexual function (TSF); test: Self-measured tactile sexual function (TSF) scores C, CT, A, B, BM, BS after ingesting treatment substance(s); settings: for effect on TSF, stated in words: inventor; for TSF when both paroxetine and finasteride were ingested: during use of both drugs; for C, A and B scores when combined with Val and NAC: at 60 minutes;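 on all read-outs here: Self-rated by the single male inventor (about 65 kg) after oral intake, capsules unless noted, on the TSF scale, each one-unit score rise means roughly double the sensation intensity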
Text: Some treatment substances were in liquid form when orally ingested. For the Working Examples herein all treatment substances were in capsule form unless otherwise noted in the Tables herein. […] It is contemplated that the mg per kilogram dose of treatment substances and/or the time from ingesting one or more treatment substances may vary from person to person for optimum improvement in treating a sexual dysfunction (e.g., an SRSS including reduced TSF or absent TSF). In some instances, it is contemplated that ingesting one treatment substance may be done at a different time than ingesting another treatment substance to optimize the effect in treating a sexual dysfunction.
For a male, the A score is the highest intensity of TSF just before the first muscle contraction of ejaculation, and the B score is the highest intensity of TSF just after the first muscle contraction of ejaculation.

[2] = Non-sexual side effects associated with ingesting treatment substances; settings: for non-sexual side effect / adverse event: after ingesting the treatment substance
[3] = tested on: ejaculation/orgasm; test: Ejaculation scores D (strength of the muscle contractions during ejaculation) and DE (ease to achieve ejaculation), incl. FE/FO; assay type: in vivo, human; settings: for effect on D/DE scores, stated in words: Examples with the positive cholinergic; for time after ingestion at which the increase in DE score may peak: before 60 minutes; for average D score / average DE score: when not combined with another listed positive cholinergic
Method: Variations in TSF and other sexual responses were noticed after ingesting a treatment substance, and additional scores to describe these responses were recorded in some examples. In some examples the C score for TSF was localized only to the head (“glands”) of the penis when one or more C score measurements were taken prior to attempted or achieved ejaculation/orgasm. […] In some examples after ingesting a treatment substance, the speed of B score decrease from the first muscle contraction to the last muscle contraction of ejaculation was recorded as the “BS” score using terms such as “IS” for instantaneous loss of TSF where a B score of 0.0 occurred at or immediately after the first muscle contraction, “FT” for a fast loss of TSF, and “SL” for a slow loss of TSF. In some examples the minimum B score measured at or near the last muscle contraction was recorded as the “BM” score using the same scoring parameters as for the B score. […] In some examples the ease to achieve ejaculation was recorded as the “DE” score, with a score of 1.0 being ejaculation achieved with some difficulty, 2.0 being a typical/normal ease of ejaculation, and a 3.0 being of the ease of ejaculation was promoted. […] When a score (e.g., C, CT, A, B, BM, BS, D, DE) was not recorded or not applicable then “N/A” is listed for that score and that score was not used (no numeric score) for mathematical evaluations in such an occurrence.
Dietary vitamins and nutritional supplements were ingested about 7:00 AM to about 10:30 AM with coffee, and coffee consumption ended by about 12:00 PM or earlier. No food was ingested during the day before measurements as only one meal a day is typically eaten in the evening.
Measurements were made in the morning from about 7:30 AM until about 11:30 AM.
Dietary vitamins and nutritional supplements were ingested about 7:00 AM to about 10:30 AM with coffee, and coffee consumption ended by about 12:00 PM or earlier.
No food, dietary vitamins or nutritional supplements were ingested the day of the measurements until after the measurements were taken.

[4] = tested on: sexual function; test: Additional sexual effects after ingesting treatment substances (C score different, urination sensitivity, ease to ejaculate); assay type: in vivo, human; settings: 3000 mg/day, after about a week
[5] = in ester or salt form, cited from earlier work
[6] = tested on: mGlu(2/3)-R; settings: rats, striatum; cited from earlier work
[7] = molecular target: mGlu5-R (Homo sapiens, UniProt P41594); settings: Glu released by Xc- after exchange for Cys2; cited from earlier work
mGlu5-R, sequence (P41594 21-1212): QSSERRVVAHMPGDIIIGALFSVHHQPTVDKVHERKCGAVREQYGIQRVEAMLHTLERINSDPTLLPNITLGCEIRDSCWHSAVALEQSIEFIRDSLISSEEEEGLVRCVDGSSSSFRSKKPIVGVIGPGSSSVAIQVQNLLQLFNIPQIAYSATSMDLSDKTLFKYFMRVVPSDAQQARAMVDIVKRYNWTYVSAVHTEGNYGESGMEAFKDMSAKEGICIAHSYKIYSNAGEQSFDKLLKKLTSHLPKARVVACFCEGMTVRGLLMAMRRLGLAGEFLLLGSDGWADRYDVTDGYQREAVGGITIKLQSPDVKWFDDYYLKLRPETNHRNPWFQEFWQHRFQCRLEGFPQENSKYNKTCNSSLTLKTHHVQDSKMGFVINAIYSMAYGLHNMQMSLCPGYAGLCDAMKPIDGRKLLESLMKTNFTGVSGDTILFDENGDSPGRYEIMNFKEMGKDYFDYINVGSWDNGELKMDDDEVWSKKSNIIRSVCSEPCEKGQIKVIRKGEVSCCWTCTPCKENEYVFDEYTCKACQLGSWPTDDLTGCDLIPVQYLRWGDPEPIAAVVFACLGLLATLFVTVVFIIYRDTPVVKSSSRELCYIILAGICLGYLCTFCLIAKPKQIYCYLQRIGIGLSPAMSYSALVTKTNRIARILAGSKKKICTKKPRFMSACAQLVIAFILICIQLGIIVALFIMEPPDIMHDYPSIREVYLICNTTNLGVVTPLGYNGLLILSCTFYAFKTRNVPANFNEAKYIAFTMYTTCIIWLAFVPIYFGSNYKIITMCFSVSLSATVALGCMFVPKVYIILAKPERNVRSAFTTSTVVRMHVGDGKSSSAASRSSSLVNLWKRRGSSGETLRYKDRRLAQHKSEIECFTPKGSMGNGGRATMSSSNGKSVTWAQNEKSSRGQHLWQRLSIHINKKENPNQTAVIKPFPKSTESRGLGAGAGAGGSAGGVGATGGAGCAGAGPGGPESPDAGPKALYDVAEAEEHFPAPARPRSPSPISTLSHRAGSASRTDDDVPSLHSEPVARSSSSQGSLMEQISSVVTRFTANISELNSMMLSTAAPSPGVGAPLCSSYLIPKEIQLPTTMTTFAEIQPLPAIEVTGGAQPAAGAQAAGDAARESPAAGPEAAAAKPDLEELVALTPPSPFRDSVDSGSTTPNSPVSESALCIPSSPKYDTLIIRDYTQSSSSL

[8] = in vivo; cited from earlier work
[9] = tested on: tactile sexual function (TSF); test: C score at varying time points after ingestion (duration of effect; rise, peak, fall pattern or decline pattern); assay type: in vivo, human; settings: C scores at 20 to 60 minutes
Text: Table 42 records the increases/decreases in C scores over time as a measure of the duration of the effect of ingesting a treatment substance on TSF, for some working examples listed in previous tables. These working examples measured TSF for C scores at varying time points after the first ingestion of a treatment substance and before the measurement of the B score. Negative time scores indicate that the C score measurement occurred prior to ingesting a treatment substance, such as at example T37:82 the […] time is listed as −20 as the measurement for the C score at the C1 time was made 20 minutes before ingesting the treatment substance. In some examples additional rows were used to record C scores (e.g., examples T37:82 and T40:1). The duration of the effect of treatment substance(s) on the C score varied, with some reaching a peak C score before the B score measurement (e.g., see example T37:43), and other still increasing in C score to the B score measurement (e.g., see example T41:8).
Early C score measurements, when available, are shown for 20, 30, 40, and/or 50 minutes. […] Individual combinations of Val and NAC and another treatment substance may vary from the average's rise, peak, fall pattern (e.g., T41:120). […]

[10] = after the first day of ingesting bupropion
[11] = prolonged daily ingestion (D-Asp 3000 mg/day about a week; bupropion per prescription, following months)
[12] = Table 47A, dose in mg per example: Phenibut 450, Homotaurine 50, 150, 200, 250, listed as T38:5
[13] = Table 47A, dose in mg per example: Phenibut 450, Homotaurine 50, 150, 200, 250, listed as T38:18
[14] = Table 47A, dose in mg per example: Phenibut 450, Homotaurine 50, 150, 200, 250
[15] = Table 47A, dose in mg per example: Phenibut 450, Homotaurine 50, 150, 200, 250, beverage and time as in Tables 37, 38, 39
[16] = Table 39B, ingested at times other than 60 minutes before measurements, various beverages
[17] = Table 39C, ingested at times other than 60 minutes before measurements

In the case of CC(=O)N[C@@H](CCC(N)=O)C(=O)O [AcetylGln, N-Acetyl L-Glutamine], the “effect on TSF, stated in words” value [1] is reported as “relatively weak effect”.

With CC(NC(C)(C)C)C(=O)c1cccc(Cl)c1 (centres unmarked) [Bupropion, reference compound] the “non-sexual side effect / adverse event” value [2] was “feeling odd/under the influence of a drug”, the A score [1, 10] was “about 4” and the B score [1, 10] was “about 4”. For the same compound, the C score [1, 10] was “less than 1”, the A score [1, 11] was 0 and the B score [1, 11] was 0. It also gave a BM score [1, 11] of 0, a C score [1, 11] of 0 and a D score [3, 10] of 3.0. The DE score [3, 10] was 2.0, the D score [3, 11] was 3.0 and the DE score [3, 11] was 2.0.

In the case of N[C@H](CC(=O)O)C(=O)O [D-Asp, D-Aspartic Acid], the “physical arousal (erections)” value [4] is reported as “extremely promoted”, the “non-sexual side effect / adverse event” value [2] is reported as “a small bump from a varicose vein developed on the penis” and the A score [1, 11] is reported as 0. The B score [1, 11] was 0, the BM score [1, 11] was 0 and the C score [1, 11] was 0. For the same compound, the D score [3, 11] was 3.0 and the DE score [3, 11] was 2.0.

In the case of C[C@@H](O)CC(=O)O [D-Beta-Hydroxybutyrate], the “blood ketone bodies such as D-Beta-Hydroxybutyrate” value ([5]; 12 grams) is listed as 1.0 mM and the “blood ketone bodies such as D-Beta-Hydroxybutyrate” value ([5]; 24 grams) is listed as 2.8 mM.

For NCCCS(=O)(=O)O [Example T38: 5, Homotaurine], the C score ([1]; Table 47A, dose in mg per example: Phenibut 450, Homotaurine 50, 150, 200, 250, beverage and time as in Tables 37, 38, 39, listed as T38:5) was 1.8, the A score [1, 12] was 9.5 and the B score [1, 12] was 9.5.

Work on NCCCS(=O)(=O)O [Example T38: 18, Homotaurine] yielded a C score ([1]; Table 47A, dose in mg per example: Phenibut 450, Homotaurine 50, 150, 200, 250, beverage and time as in Tables 37, 38, 39, listed as T38:18) of 1.0, an A score [1, 13] of 9.2 and a B score [1, 13] of 9.2.

In the case of CC(C)(C)NC(=O)[C@H]1CC[C@H]2[C@@H]3CC[C@H]4NC(=O)C=C[C@]4(C)[C@H]3CC[C@]12C [Finasteride, reference compound], the “TSF when both paroxetine and finasteride were ingested” value ([1]; oral, per prescription) is reported as “complete lack of TSF” and the “effect on TSF while ingesting the drug” value ([1]; oral, per prescription, inventor before SRSS) is reported as “moderately reduced TSF”.

With NCCCC(=O)O [GABA, gamma-aminobutyric acid] the “effect on TSF, stated in words” value [1] was “mild improvement in TSF relative to Val”.

In the case of COc1ccc2c3c1O[C@H]1C[C@@H](O)C=C[C@@]31CCN(C)C2 [Galantamine HBr, Galantamine Hydrobromide, reference compound], the “effect on D/DE scores, stated in words” value [3] is reported as “generally had improved D/DE scores”, the “time after ingestion at which the increase in DE score may peak” value [3] is reported as “about 40 minutes” and the “average D score” value [3] is reported as “about 3.6”. The “average DE score” value [3] was 2.4.

In the case of N[C@@H](CCC(=O)O)C(=O)O [Glu, Glutamic Acid], the “Glu concentration that activated the mGlu(2/3)-R” value [6] is listed as 0.5 µM and the “Glu level at which the extrasynaptic mGlu5-R becomes activated” value [7] is listed as 500 µM.

With C/C=C1\[C@H]2C=C(C)C[C@]1(N)c1ccc(=O)[nH]c1C2 [Huperzine A] the “effect on D/DE scores, stated in words” value [3] was “also had Examples of improved D/DE scores”, the “time after ingestion at which the increase in DE score may peak” value [3] was “about 40 minutes” and the “average D score” value [3] was 3. The “average DE score” value [3] was 1.9.

In the case of CC(=O)N[C@@H](CS)C(=O)O [NAC, N-Acetyl-Cysteine, reference compound], the “effect on TSF, stated in words” value [1] is reported as “no positive effect was noticed on TSF”.

For CN[C@H](CC(=O)O)C(=O)O [NMDA, N-Methyl-D-Aspartic Acid, reference compound], the “effect on TSF, stated in words” value [1] was “negative effect on TSF scores”.

NCCCS(=O)(=O)O [T37:56, Homotaurine] gave an A score [1, 14] of 7.5, a B score [1, 14] of 7.5 and a C score [1, 15] of 1.2.

NCCCS(=O)(=O)O [T37:57, Homotaurine] gave an A score [1, 14] of 9.2, a B score [1, 14] of 9.2 and a C score [1, 15] of 1.2.

For NCC(CC(=O)O)c1ccccc1 (centres unmarked) [T39:13, Phenibut HCl], the “Side Effect” value ([2]; non-sexual side effect after ingesting treatment substance(s)) was “Felt not normal”, the “Time of Side Effect” value ([2]; time after ingesting treatment substance(s), sometimes approximated) was 20 to 120 min and the A score [1, 16] was 6.5. The B score [1, 16] was 6.5, the C score [1, 16] was 1.5 and the A score [1, 17] was 6.5. The B score [1, 17] was 6.5, the C score [1, 17] was 1.5 and the A score [1, 14] was 6.5. The B score [1, 14] was 6.5, the C score [1, 15] was 1.5 and the “D score (strength of the muscle contractions during ejaculation)” value [3, 17] was 4.0. The “DE score (ease to achieve ejaculation)” value [3, 17] was 2.0.

For CC(C)[C@H](N)C(=O)O [Val, Valine], the “effect on TSF, stated in words” value [1] was “stronger improvement in TSF than either Leu or Ile”.

In the case of Cn1c(=O)c2c(ncn2C)n(C)c1=O [caffeine, Caffeine], the average plasma half-life [8] is listed as 5 h.

For O=C1c2c(O)cc(O)cc2O[C@H](c2cc(O)c(O)c(O)c2)[C@H]1O [dihydromyricetin, Dihydromyricetin], the “C, A and B scores when combined with Val and NAC” value [1] was “C, A and B scores less than the lowest C, A and B scores of Val and NAC alone”, the “effect on TSF, stated in words” value [1] was “reduced positive TSF scores” and the “C score pattern over time when ingested alone” value [9] was “decline pattern”.

In the case of COc1ccc([C@@H]2CC(=O)c3c(O)cc(O[C@@H]4O[C@H](CO[C@@H]5O[C@@H](C)[C@H](O)[C@@H](O)[C@H]5O)[C@@H](O)[C@H](O)[C@H]4O)cc3O2)cc1O [hesperidin, Hesperidin], the “C score pattern over time when combined with Val and NAC” value [9] is reported as “rise, peak, fall pattern of C scores and not a high C, A, and/or B scores”.

With COc1ccc(-c2oc3c(CC=C(C)C)c(O[C@@H]4O[C@H](CO)[C@@H](O)[C@H](O)[C@H]4O)cc(O)c3c(=O)c2O[C@@H]2O[C@@H](C)[C@H](O)[C@@H](O)[C@H]2O)cc1 [icariin, Icariin] the “C, A and B scores when combined with Val and NAC” value [1] was “C score below a preferred C score and A and B scores that matched the lowest A and B scores of Val and NAC alone”.

With Fc1ccc([C@@H]2CCNC[C@H]2COc2ccc3c(c2)OCO3)cc1 [paroxetine, reference compound] the “TSF after discontinuing paroxetine use” value ([1]; finasteride continued) was “absence of TSF continued much to most of the time” and the “TSF when both paroxetine and finasteride were ingested” value ([1]; oral, per prescription) was “complete lack of TSF”.

In the case of NCC(CC(=O)O)c1ccccc1 (centres unmarked) [phenibut, Phenibut HCl], the “effect on TSF, stated in words” value [1] is reported as “weaker effect on improving A/B TSF scores”.

For CCNC(=O)CC[C@H](N)C(=O)O [theanine, Theanine], the “number of Examples with failure to ejaculate” value ([3]; of 14 Examples having theanine as a treatment substance, 12 failures in all Examples) was 3.

— patent publication US20250152601A1, “Compositions and Methods for the Treatment of Sexual Dysfunctions” (The Jonathan Hurt Living Trust, priority 2022, published 2025)
